Reference: the supplement of paper PMC11451515

Tested on: NOMO1
Experiment: cell viability relative to DMSO control; higher = less cytotoxic
Conditions: 48 h
Summary of the method: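 Library compounds in DMSO were pin-dosed into 1536-well plates (5 μl) holding NOMO1 or SEM (500 cells/well) or P12-Ichikawa (1000 cells/well) leukemia cells, across an 11-point threefold series of 47 μM to 0.79 nM. Each cell line had been adapted for at least four passages in each medium. CellTiter-Glo One luminescence was read after 48 h at 37°C. Viability is the per-plate percentage relative to DMSO wells, with cell-free wells as background.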

[1] = HPLM + 10% dialyzed FBS, 0.000781 µM
[2] = HPLM + 10% dialyzed FBS, 0.00234 µM
[3] = HPLM + 10% dialyzed FBS, 0.00702 µM
[4] = HPLM + 10% dialyzed FBS, 0.0211 µM
[5] = HPLM + 10% dialyzed FBS, 0.0632 µM
[6] = HPLM + 10% dialyzed FBS, 0.19 µM
[7] = HPLM + 10% dialyzed FBS, 0.569 µM
[8] = HPLM + 10% dialyzed FBS, 1.71 µM
[9] = HPLM + 10% dialyzed FBS, 5.12 µM
[10] = HPLM + 10% dialyzed FBS, 15.4 µM
[11] = HPLM + 10% dialyzed FBS, 46.1 µM
[12] = RPMI 5 mM glucose + 10% FBS, 0.000781 µM
[13] = RPMI 5 mM glucose + 10% FBS, 0.00234 µM
[14] = RPMI 5 mM glucose + 10% FBS, 0.00702 µM
[15] = RPMI 5 mM glucose + 10% FBS, 0.0211 µM
[16] = RPMI 5 mM glucose + 10% FBS, 0.0632 µM
[17] = RPMI 5 mM glucose + 10% FBS, 0.19 µM
[18] = RPMI 5 mM glucose + 10% FBS, 0.569 µM
[19] = RPMI 5 mM glucose + 10% FBS, 1.71 µM
[20] = RPMI 5 mM glucose + 10% FBS, 5.12 µM
[21] = RPMI 5 mM glucose + 10% FBS, 15.4 µM
[22] = RPMI 5 mM glucose + 10% FBS, 46.1 µM
[23] = RPMI 5 mM glucose + 10% dialyzed FBS, 0.000781 µM
[24] = RPMI 5 mM glucose + 10% dialyzed FBS, 0.00234 µM
[25] = RPMI 5 mM glucose + 10% dialyzed FBS, 0.00702 µM
[26] = RPMI 5 mM glucose + 10% dialyzed FBS, 0.0211 µM
[27] = RPMI 5 mM glucose + 10% dialyzed FBS, 0.0632 µM
[28] = RPMI 5 mM glucose + 10% dialyzed FBS, 0.19 µM
[29] = RPMI 5 mM glucose + 10% dialyzed FBS, 0.569 µM
[30] = RPMI 5 mM glucose + 10% dialyzed FBS, 1.71 µM
[31] = RPMI 5 mM glucose + 10% dialyzed FBS, 5.12 µM
[32] = RPMI 5 mM glucose + 10% dialyzed FBS, 15.4 µM
[33] = RPMI 5 mM glucose + 10% dialyzed FBS, 46.1 µM

Compound	cell viability [1]	cell viability [2]	cell viability [3]	cell viability [4]	cell viability [5]	cell viability [6]	cell viability [7]	cell viability [8]	cell viability [9]	cell viability [10]	cell viability [11]	cell viability [12]	cell viability [13]	cell viability [14]	cell viability [15]	cell viability [16]	cell viability [17]	cell viability [18]	cell viability [19]	cell viability [20]	cell viability [21]	cell viability [22]	cell viability [23]	cell viability [24]	cell viability [25]	cell viability [26]	cell viability [27]	cell viability [28]	cell viability [29]	cell viability [30]	cell viability [31]	cell viability [32]	cell viability [33]
COC1=CC=C(C=C1O)C/2=C/C(=O)C3=C(O2)C=C(O[C@@H]4O[C@H](CO[C@@H]5O[C@@H](C)[C@H](O)[C@@H](O)[C@H]5O)[C@@H](O)[C@H](O)[C@H]4O)C=C3O	112%	118%	129%	126%	130%	142%	134%	117%	117%	129%	139%	112%	103%	110%	115%	130%	114%	126%	125%	126%	124%	114%	–	–	–	–	–	–	–	–	–	–	–
CCN(c1ccccc1)c1cc(NC)[n+](C)c(C)n1	121%	123%	109%	120%	130%	115%	116%	123%	107%	109%	111%	115%	104%	106%	110%	101%	104%	123%	122%	112%	95.5%	103%	106%	111%	112%	124%	122%	116%	126%	113%	103%	108%	108%
COC(=O)\C1=C\CCN(C)C1	125%	115%	111%	102%	101%	124%	135%	115%	113%	112%	109%	84.7%	94.8%	96.5%	91.3%	85.3%	94%	110%	97.4%	93.6%	87%	99%	95.7%	96.3%	98.9%	95.7%	107%	97.4%	92.5%	97.6%	88.9%	102%	103%
CC(C)(O)c1cc2nc(-c3cnc(N)nc3)nc(N3CCOCC3)c2s1	–	–	–	–	–	–	–	–	–	–	–	123%	121%	107%	121%	110%	104%	104%	88.7%	76.6%	63.1%	67.5%	121%	125%	114%	105%	98.2%	85.8%	83.3%	60.8%	53.4%	46.8%	51.8%
OC1=CC2=C(C(=C1)O)C(=O)\C(=C(/O2)C3=CC(=C(O)C=C3)O)O	97.5%	104%	102%	112%	125%	117%	116%	99.7%	118%	110%	109%	98.1%	105%	115%	90.8%	110%	108%	106%	110%	95.4%	90.5%	97.9%	98.2%	98%	109%	107%	104%	118%	110%	104%	107%	106%	102%
C1CCN2C[C@H]3C[C@H](\C=C/4CCCN[C@@H]34)[C@H]2C1	96.5%	113%	113%	133%	96.1%	122%	137%	107%	115%	99.5%	92.8%	105%	105%	108%	104%	98.7%	108%	104%	105%	108%	63.7%	55%	107%	108%	114%	121%	108%	108%	120%	111%	120%	78.6%	64.2%
CCOC(=O)Nc1ccc(NCc2ccc(F)cc2)nc1N	123%	137%	114%	127%	117%	117%	108%	101%	104%	109%	120%	118%	105%	103%	111%	110%	127%	101%	105%	103%	114%	106%	108%	113%	110%	123%	122%	109%	119%	119%	112%	106%	102%
Nc1nc(Cl)nc2c1ncn2[C@@H]1O[C@H](CO)[C@@H](O)[C@@H]1F	41.7%	70.8%	43.4%	33.3%	26.6%	18.2%	24.7%	23.9%	21.2%	18.1%	18.6%	77.2%	131%	49%	27.2%	20%	21.7%	16.9%	16.7%	18.4%	16%	13.5%	38.9%	63.2%	29.8%	25.7%	23%	23.6%	19.9%	16.4%	14.2%	19.7%	17.1%
